Experimental data published in ChEMBL document CHEMBL4393659, “Insights into the chemistry and therapeutic potential of furanones: A versatile pharmacophore” (Eur J Med Chem, 2019).
pIC50: −log10 of the molar value. ≈ marks a conversion by molar mass, not a printed value.

Experiments:
Globisporangium ultimum [1] = assay: Antifungal activity against Pythium ultimum assessed as reduction in fungal spore germination measured between 4 to 24 hrs by inverted microscopy; type: functional; conditions: read-out: ED50 (the source's name)
Berkeleyomyces basicola = assay: Antifungal activity against Thielaviopsis basicola assessed as reduction in fungal spore germination measured between 4 to 24 hrs by inverted microscopy; type: functional; conditions: read-out: ED50 (the source's name)
Fusarium solani = assay: Antifungal activity against Fusarium solani assessed as reduction in fungal spore germination measured between 4 to 24 hrs by inverted microscopy; type: functional; conditions: read-out: ED50 (the source's name)
Rhizoctonia solani = assay: Antifungal activity against Rhizoctonia solani assessed as reduction in fungal germ tube growth measured between 4 to 24 hrs by inverted microscopy; type: functional; conditions: read-out: ED50 (the source's name)
Fusarium oxysporum = assay: Antifungal activity against Fusarium oxysporum assessed as reduction in fungal spore germination measured between 4 to 24 hrs by inverted microscopy; type: functional; conditions: read-out: ED50 (the source's name)
Bacillus subtilis [2] = assay: Antibiofilm activity in Bacillus subtilis assessed as reduction in biofilm thickness at 40 ug/ml incubated for 3 days by confocal microscopy; type: functional; set-up: scale not given: the % may be the effect or the level left
Escherichia coli = assay: Inhibition of swarming motility of Escherichia coli at 13 ug/cm2; type: functional
Bacillus subtilis [3] = assay: Antibacterial activity against Bacillus subtilis assessed as cell viability at 40 ug/ml incubated for 3 days by confocal microscopy; type: functional
[4] = Antioxidant activity assessed as superoxide anion scavenging activity at pH 7.4 phosphate buffer incubated for 5 mins by NBT assay; type: functional
Liver = assay: Antioxidant activity in rat liver microsomes assessed as reduction in ferrous salt/ascorbic acid-induced lipid peroxidation of membrane lipids by measuring malondialdehyde level after 90 mins by spectrophotometry; type: functional, Microsome; conditions: 1.5 h
[5] = Antioxidant activity assessed as DPPH radical scavenging activity measured for each 5 mins for 3 hrs; type: functional
Tyrosinase = Tyrosinase (Homo sapiens, UniProt P14679); assay: Inhibition of tyrosinase (unknown origin) assessed as reduction in melanin formation
Tyrosinase, sequence (P14679 whole entry): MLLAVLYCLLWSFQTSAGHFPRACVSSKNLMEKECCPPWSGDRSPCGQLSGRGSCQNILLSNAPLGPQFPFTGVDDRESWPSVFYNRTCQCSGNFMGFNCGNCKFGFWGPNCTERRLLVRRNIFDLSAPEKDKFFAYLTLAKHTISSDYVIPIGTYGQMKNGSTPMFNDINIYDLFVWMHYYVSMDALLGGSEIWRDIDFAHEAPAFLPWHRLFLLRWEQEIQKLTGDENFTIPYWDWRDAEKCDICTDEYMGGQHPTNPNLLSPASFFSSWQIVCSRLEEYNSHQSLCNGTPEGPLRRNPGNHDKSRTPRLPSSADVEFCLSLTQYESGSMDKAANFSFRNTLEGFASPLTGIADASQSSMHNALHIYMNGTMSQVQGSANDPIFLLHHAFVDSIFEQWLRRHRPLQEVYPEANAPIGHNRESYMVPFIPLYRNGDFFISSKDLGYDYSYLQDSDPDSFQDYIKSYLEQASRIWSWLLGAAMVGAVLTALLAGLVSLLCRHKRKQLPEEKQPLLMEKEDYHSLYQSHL

A549 [6] = assay: Antitumor activity against human A549 cells assessed as inhibition of cell viability at 50 uM by MTT assay; type: functional
A549 [7] = assay: Antitumor activity against human A549 cells assessed as inhibition of cell viability at 100 uM by MTT assay; type: functional
[8] = Ulcerogenicity in Sprague-Dawley rat assessed as gastric lesions at 50 mg/kg , po bid measured after 4 hrs; type: toxicity, organism-based; conditions: in vivo
Rattus norvegicus [9] = species on record: Rattus norvegicus; assay: Antiarthritic activity in adjuvant-induced Sprague-Dawley rat; type: functional
Rattus norvegicus [10] = assay: Antiinflammatory activity in Sprague-Dawley rat assessed as inhibition of carrageenan-induced paw edema at 3 mg/kg , po incubated for 1 hr followed by carrageenan addition and measured after 4 hrs relative to control; type: functional
[11] = target: Prostaglandin G/H synthase 2 (Mus musculus, UniProt Q05769); assay: Inhibition of mouse COX-2 in LPS-induced mouse peritoneal macrophage assessed as reduction in PGE2 release incubated for 2 hrs by ELISA
Prostaglandin G/H synthase 2, sequence (Q05769 whole entry): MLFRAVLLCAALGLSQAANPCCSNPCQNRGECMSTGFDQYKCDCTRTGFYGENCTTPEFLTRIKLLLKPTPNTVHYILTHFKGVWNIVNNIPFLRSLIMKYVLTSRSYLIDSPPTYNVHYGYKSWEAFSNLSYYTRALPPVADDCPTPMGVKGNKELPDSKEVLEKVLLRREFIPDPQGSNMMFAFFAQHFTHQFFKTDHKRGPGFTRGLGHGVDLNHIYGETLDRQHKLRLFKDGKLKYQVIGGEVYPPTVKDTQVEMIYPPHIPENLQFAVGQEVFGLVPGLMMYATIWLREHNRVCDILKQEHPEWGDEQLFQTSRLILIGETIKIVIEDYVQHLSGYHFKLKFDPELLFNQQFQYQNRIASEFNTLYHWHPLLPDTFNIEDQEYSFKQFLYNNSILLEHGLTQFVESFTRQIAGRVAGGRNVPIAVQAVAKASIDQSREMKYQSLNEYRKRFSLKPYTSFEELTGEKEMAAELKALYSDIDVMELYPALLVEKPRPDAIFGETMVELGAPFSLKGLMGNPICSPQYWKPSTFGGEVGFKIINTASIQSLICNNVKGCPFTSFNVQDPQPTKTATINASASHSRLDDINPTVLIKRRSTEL

Rattus norvegicus [12] = assay: Antiinflammatory activity in Sprague-Dawley rat assessed as inhibition of carrageenan-induced paw edema at 3 mg/kg , po relative to control; type: functional
[13] = system: Mycobacterium tuberculosis; assay: Antimycobacterial activity against Mycobacterium tuberculosis H37Rv ATCC 27294 at 0.19 to 100 ug/ml incubated for 4 days by microplate alamar blue assay; type: functional, organism-based; conditions: H37Rv ATCC 27294, 96 h
Rattus norvegicus [14] = assay: Antiinflammatory activity in rat assessed as inhibition of carrageenan-induced paw edema at 10 mg/kg , po and measured after 4 hrs of carrageenan addition relative to control; type: functional
Mus musculus = assay: Analgesic activity in albino mouse assessed as inhibition of acetic acid induced writhing at 10 mg/kg , po; type: functional
Diaphania hyalinata = assay: Insecticidal activity against Diaphania hyalinata assessed as reduction in living insects observed after 48 hrs; type: functional
[15] = Ulcerogenicity in Wistar rat assessed as gastric lesions; type: toxicity; conditions: in vivo
Rattus norvegicus [16] = assay: Antiinflammatory activity in Wistar rat assessed as inhibition of carrageenan-induced edema measured upto 4 hrs; type: functional
Globisporangium ultimum [17] = assay: Antifungal activity against Pythium ultimum assessed as reduction in fungal cell growth incubated for 48 hrs by broth dilution method; type: functional
[18] = Cytotoxicity against dog MDCK cells assessed as reduction in cell viability incubated for 24 hrs by MTT assay; type: cell-based, Canis lupus familiaris; conditions: read-out: LD50
H5N1 subtype = assay: Antiviral activity against H5N1 virus infected in MDCK cells assessed as virus-induced cytopathogenicity infected for 2 hrs followed by virus washout and incubated for 3 days; type: functional, organism-based; conditions: Influenza A virus

`CCCC/C=C\C1=CC(C)OC1=O` (stereo not drawn) gave an EC50 (Globisporangium ultimum [1]) of 45 µg/mL (≈ 250 µM), an EC50 (Berkeleyomyces basicola) of 25 µg/mL (≈ 139 µM) and an EC50 (Fusarium solani) of 54 µg/mL (≈ 300 µM). It also gave an EC50 (Rhizoctonia solani) of 61 µg/mL (≈ 338 µM) and an EC50 (Fusarium oxysporum) of 56 µg/mL (≈ 311 µM).

With `CCCCC1=C(Br)/C(=C/Br)OC1=O` the Activity (Bacillus subtilis [2]) was 25%, the “inhibition (INH)” value (Escherichia coli) was 100% and the Activity (Bacillus subtilis [3]) was 63%.

Molecule `O=C1OC(c2cccc(O)c2O)C(c2ccccc2)=C1O` (stereo not drawn) has a pIC50 [4] of 3.73, a pIC50 (Liver) of 3.89 and a pIC50 [5] of 4.99.

Molecule `CC1=C(O)C(=O)CO1` has a pIC50 (Tyrosinase) of 4.30.

Molecule `CC[C@H](C)[C@H](NC1=C(Br)C(=O)O[C@@H]1OC)C(=O)OC` has an inhibition at 50 µM (A549 [6]) of 82.7% and an inhibition at 100 µM (A549 [7]) of 97.2%.

For `CC1(C)OC(c2ccc(S(C)(=O)=O)cc2)=C(c2cccc(F)c2)C1=O`, the UI [8] was 1.5, the ED50 (Rattus norvegicus [9]) was 0.008 mg/kg/day and the inhibition in vivo at 3 mg/kg (Rattus norvegicus [10]) was 47%. It also gave a pIC50 [11] of 8.08 and an inhibition in vivo at 3 mg/kg (Rattus norvegicus [12]) of 36%.

With `COc1ccc(/C=C2/C=C(c3ccc(Br)cc3)OC2=O)cc1OC` the IC50 [13] was 26.8 µg/mL (≈ 69.1 µM).

Work on `O=C(O)Cc1ccccc1Nc1c(Cl)cccc1Cl` [DICLOFENAC] yielded an inhibition in vivo at 10 mg/kg (Rattus norvegicus [14]) of 78.6% and an inhibition in vivo at 10 mg/kg (Mus musculus) of 67.7%.

`CC(C)O[C@@H]1OC(=O)[C@@H]2[C@H]1[C@@H]1C=C[C@H]2C1` gave an LD50 (Diaphania hyalinata) of 44.51 µM/g.

For `O=C1OC(c2ccc3ccccc3c2)=C/C1=C\c1cc2ccc([N+](=O)[O-])cc2nc1Cl`, the UI [15] was 0.3 and the “inhibition (INH)” value (Rattus norvegicus [16]) was 56 - 63%.

`Cc1cc(O)c2c(c1)C(c1c(O)cccc1O)OC2=O` (stereo not drawn) gave an MIC (Globisporangium ultimum [17]) of 40 µg/mL (≈ 147 µM).

In the case of `O=C1OC(c2ccccc2)=C/C1=N/Nc1ccc(Br)cc1`, the CC50 at 24 h [18] was < 100 µg/mL and the EC50 (H5N1 subtype) was < 100 µg/mL.
